Measured values taken from patent publication US11921116B2, “Enigma and CDH18 as companion diagnostics for CDK4 inhibitors” (Memorial Sloan Kettering Cancer Center, priority 2016, dated 2024).
Entries after “also recorded” stand apart in the source; their conditions may differ.

Key:
Format in all cases: cell-based
[1] = tested on: non-responder cell line LS8107; test: Senescence of LS8107 cells after CDK4 inhibition (SA-β-gal positive cells, ATRX foci)
[2] = tested on: MDM2 protein levels in LS8107 cells; test: MDM2 protein levels in LS8107 cells after CDK4 inhibition
Excerpt: The short hairpins used are as follows: TRCN0000161061: […] (SEQ ID NO: 4); and TRCN0000166638 (“EN638”): […] (SEQ ID NO: 5).

[3] = tested on: MDM2 turnover in LS8107 cells; test: Turnover (degradation) of MDM2 in LS8107 cells after CDK4 inhibition; conditions: LS8107 cells with knockdown of Enigma, addition of PD0332991
Experimental: To determine if Enigma affects MDM2 protein levels post-translationally, the turnover of MDM2 was analyzed. […] To determine whether HAUSP and Enigma are the important regulators of MDM2 protein levels in response to treatment with a CDK4 inhibitor, concomitant knockdown of HAUSP and Enigma was performed.

[4] = LS8107 cells with Enigma knocked down (shRNA), treated with PD0332991
[5] = non-responder LS8107 cells, PD0332991 alone (no knockdown)

## CC(=O)c1c(C)c2cnc(Nc3ccc(N4CCNCC4)cn3)nc2n(C2CCCC2)c1=O [PD0332991]
[1]; [4]
  senescence: the cells entered senescence
[1]; [5]
  senescence as determined by the number of SA-β-gal positive cells: do not undergo senescence; also recorded: insufficient to induce senescence
[2]; [4]
  MDM2 protein levels: reduction in MDM2 protein levels
[2]; [5]
  MDM2 protein levels: do not reduce their MDM2 protein levels
[3]
  turnover of MDM2: increased the turnover of MDM2
